Experimental data reported in the Bradley open melting point set (2014).

SMILES | melting point
C#CC1(O)CCC2C3CCC4C(C)(C)CCCC4(C)C3CCC21C (centres undefined) [4,4-dimethylpregn-20-yn-17-ol] | 157 °C
Cc1ccc(C)c2c1C(=O)NC2=O [4,7-dimethyl-1H-isoindole-1,3(2H)-dione] | 224 °C
N#Cc1ccc(Oc2ccnc3ccccc23)cc1C#N [4-(Quinolin-4-yloxy)phthalonitrile] | 175 °C
OB(O)c1ccc(CBr)cc1 [4-(bromomethyl)benzeneboronic acid] | 148 °C
O=C(CCl)N1CCOCC1 [4-(chloroacetyl)morpholine] | 29 °C
O=S(=O)(Cl)c1cc(S(=O)(=O)c2ccccc2)cs1 [4-(phenylsulfonyl)thiophene-2-sulfonyl chloride] | 102 °C
C=CCc1ccc(O)c(OC)c1 [4-Allyl-2-methoxyphenol] | -9 °C
Nc1ccc(S(=O)(=O)Nc2nccs2)cc1 [4-Amino-N-(1,3-thiazol-2-yl)benzenesulfonamide] | 202 °C
Nc1ccc(S(=O)(=O)Nc2ccccn2)cc1 [4-Amino-N-(pyridin-2-yl)benzenesulfonamide] | 192 °C
Nc1ccc(Br)cc1 [4-Bromoaniline] | 66 °C
Cc1cc(O)cc(C)c1Cl [4-Chloro-3,5-dimethylphenol] | 115 °C
CCOc1ccc(N)cc1 [4-Ethoxyaniline] | 3 °C
CCN1CCOCC1 [4-Ethylmorpholine] | -63 °C
N#Cc1ccc(O)cc1 [4-Hydroxybenzonitrile] | 112 °C
CC1COC(=O)O1 (centres undefined) [4-Methyl-1,3-dioxolan-2-one] | -55 °C
Cc1ccn[nH]c1=O [4-Methylpyridazin-3(2H)-one] | 154 °C
Nc1ccc(C=C/C(=N/O)c2ccccc2)cc1 [4-[(3Z)-3-(hydroxyimino)-3-phenylprop-1-en-1-yl]aniline] | 139 °C
CC(=O)Oc1ccc(C(=O)O)cc1 [4-acetoxybenzoic acid] | 194 °C
CC(=O)Oc1ccc(C(=O)O)cc1 [4-acetoxybenzoic_acid] | 194 °C
CC(=O)Oc1ccc(-c2ccccc2)cc1 [4-acetoxybiphenyl] | 88 °C
Nn1cnnc1 [4-amino-1,2,4-triazole] | 86 °C
Nc1ccc(O)c([N+](=O)[O-])c1 [4-amino-2-nitrophenol] | 129 °C
Cc1c(N)c(=O)n(-c2ccccc2)n1C [4-aminoantipyrine] | 108 °C
NNC(=O)c1ccc(N)cc1 [4-aminobenzhydrazide] | 228 °C
N#CCc1ccc(N)cc1 [4-aminobenzyl_cyanide] | 45 °C
N#CCc1ccc(N)cc1 [4-aminophenylacetonitrile] | 44 °C

SMILES | melting point
O=C(c1ccccc1)c1ccc(-c2ccccc2)cc1 [4-benzoylbiphenyl] | 101 °C
OB(O)c1ccc(OCc2ccccc2)c(F)c1 [4-benzyloxy-3-fluorobenzeneboronic acid] | 130 °C
Nc1c(F)cc(Br)cc1F [4-bromo-2,6-difluoroaniline] | 64 °C
Oc1ccc(Br)cc1-c1cc[nH]n1 [4-bromo-2-(1h-pyrazol-3-yl)phenol] | 162 °C
Oc1ccc(Br)cc1-c1ccno1 [4-bromo-2-(5-isoxazolyl)phenol] | 211 °C
O=S(=O)(Cl)c1ccc(Br)cc1C(F)(F)F [4-bromo-2-(trifluoromethyl)benzenesulfonyl chloride] | 56 °C
Cc1cc(Br)cc(Cl)c1N [4-bromo-2-chloro-6-methylaniline] | 39 °C
OB(O)c1ccc(Br)cc1F [4-bromo-2-fluorobenzeneboronic acid] | 240 °C
Nc1ccc(Br)cc1 [4-bromoaniline] | 63 °C
ClCc1ccc(Br)cc1 [4-bromobenzyl chloride] | 40 °C
O=S(=O)(Nc1ccc(Cl)cc1)c1ccccc1 [4-chloro-1-phenylsulfonamidobenzene] | 122 °C
Cc1cc(Cl)c(C)cc1N [4-chloro-2,5-dimethylaniline] | 92 °C
Oc1ccc(Cl)cc1-c1ccno1 [4-chloro-2-(5-isoxazolyl)phenol] | 202 °C
Cc1cc(Cl)c2ccccc2n1 [4-chloro-2-methylquinoline] | 25 °C
Cc1ccc(Cl)cc1[N+](=O)[O-] [4-chloro-2-nitrotoluene] | 39 °C
Cc1cc(O)cc(C)c1Cl [4-chloro-3,5-dimethylphenol] | 115 °C
Cc1cc(B(O)O)ccc1Cl [4-chloro-3-methylbenzeneboronic acid] | 240 °C
Cc1ccc(Cl)c([N+](=O)[O-])c1 [4-chloro-3-nitrotoluene] | 7 °C
Nc1ccc(Cl)cc1N [4-chloro-o-phenylenediamine] | 72 °C
O=C(c1ccccc1)c1ccc(Cl)cc1 [4-chlorobenzophenone] | 76 °C
ClCc1ccc(Cl)cc1 [4-chlorobenzyl_chloride] | 30 °C
C=Cc1ccc(Cl)cc1 [4-chlorostyrene] | -16 °C
Sc1ccc(Cl)cc1 [4-chlorothiophenol] | 50 °C
CCCCCc1ccc(-c2ccc(C#N)cc2)cc1 [4-cyano-4'-n-pentylbiphenyl] | 23 °C
N#Cc1ccncc1 [4-cyanopyridine] | 78 °C
CCN1CCOCC1 [4-ethylmorpholine] | -63 °C

Now from value to compound:

melting point | SMILES
84 °C | O=Cc1ccc(N2CCCC2)cc1 [4-(1-pyrrolidinyl)benzaldehyde]
139 °C | OC1(c2ccc(Cl)cc2)CCNCC1 [4-(4-chlorophenyl)-4-hydroxypiperidine]
74 °C | CN(C)c1ccc(C=O)cc1 [4-(Dimethylamino)benzaldehyde]
107 °C | Cc1c(N(C)C)c(=O)n(-c2ccccc2)n1C [4-(dimethylamino)antipyrine]
139 °C | CCOC(=O)c1ccc(B(O)O)cc1 [4-(ethoxycarbonyl)benzeneboronic acid]
54 °C | CCOC(=O)c1ccc(N=C=S)cc1 [4-(ethoxycarbonyl)phenyl isothiocyanate]
137 °C | CCS(=O)(=O)c1ccc(B(O)O)cc1 [4-(ethylsulfonyl)benzeneboronic acid]
105 °C | CCSc1ccc(B(O)O)cc1 [4-(ethylthio)benzeneboronic acid]
280 °C | OCc1ccc(B(O)O)cc1 [4-(hydroxymethyl)benzeneboronic acid]
170 °C | CS(=O)c1ccc(B(O)O)cc1 (centres undefined) [4-(methylsulfinyl)benzeneboronic acid]
273 °C | CS(=O)(=O)c1ccc(C(=O)O)cc1 [4-(methylsulfonyl)benzoic acid]
100 °C | CSc1ccc(CC(=O)O)cc1 [4-(methylthio)phenylacetic acid]
178 °C | O=C(O)c1ccc(C(=O)C(F)(F)F)cc1 [4-(trifluoroacetyl)benzoic acid]
45.5 °C | Oc1ccc(F)cc1 [4-Fluorophenol]
216 °C | O=C(O)c1ccc(O)cc1 [4-Hydroxybenzoic acid]
79 °C | CC(C)Oc1ccc(Nc2ccccc2)cc1 [4-Isopropoxy-N-phenylaniline]
181 °C | Cc1ccc(C(=O)O)cc1 [4-Methylbenzoic acid] [listing 1 of 2 here]
180 °C | Cc1ccc(C(=O)O)cc1 [4-Methylbenzoic acid] [listing 2 of 2 here]
29 °C | Cc1ccc(C#N)cc1 [4-Methylbenzonitrile]
202 °C | NC(=O)c1ccc([N+](=O)[O-])cc1 [4-Nitrobenzamide]
240 °C | O=C(O)c1ccc([N+](=O)[O-])cc1 [4-Nitrobenzoic acid]
75 °C | O=C(Cl)c1ccc([N+](=O)[O-])cc1 [4-Nitrobenzoyl chloride]
160 °C | CC(=O)Nc1ccc(C=O)cc1 [4-acetamidobenzaldehyde]
169 °C | CC(=O)Nc1ccc(O)cc1 [4-acetamidophenol]

melting point | SMILES
188 °C | Nc1ccc(C(=O)O)cc1 [4-aminobenzoic acid] [listing 1 of 2 here]
188 °C | Nc1ccc(C(=O)O)cc1 [4-aminobenzoic acid] [listing 2 of 2 here]
61 °C | Nc1ccc(CO)cc1 [4-aminobenzyl alcohol]
36 °C | N#CCc1ccc(Cc2ccccc2)cc1 [4-benzylphenylacetonitrile]
5 °C | Cc1ccc(Cc2ccccc2)cc1 [4-benzyltoluene]
80 °C | Cc1cc(Br)cc(C)c1N=C=S [4-bromo-2,6-dimethylphenyl isothiocyanate]
81 °C | Cc1cc(N)ccc1Br [4-bromo-3-methylaniline]
11 °C | COc1ccc(Br)cc1 [4-bromoanisole]
284 °C | OB(O)c1ccc(Br)cc1 [4-bromobenzeneboronic acid]
256 °C | O=C(O)c1ccc(Br)cc1 [4-bromobenzoic acid]
78 °C | OCc1ccc(Br)cc1 [4-bromobenzyl alcohol]
75 °C | Sc1ccc(Br)cc1 [4-bromothiophenol]
28 °C | Cc1ccc(Br)cc1 [4-bromotoluene]
52 °C | O=S(=O)(Cl)c1ccc(Cl)cc1 [4-chlorobenzenesulfonyl chloride]
20 °C | SCc1ccc(Cl)cc1 [4-chlorobenzyl mercaptan]
38 °C | O=C1CCOc2ccccc21 [4-chromanone]
68 °C | CCCCc1ccc(C(=O)Oc2ccc(C#N)cc2)cc1 [4-cyanophenyl 4-n-butylbenzoate]
102 °C | CCCc1ccc(C(=O)Oc2ccc(C#N)cc2)cc1 [4-cyanophenyl 4-n-propylbenzoate]
145 °C | CN(C)c1ccc(C(=O)Cl)cc1 [4-dimethylaminobenzoyl chloride]
67 °C | CN(C)c1ccc(N=C=S)cc1 [4-dimethylaminophenyl isothiocyanate]
167 °C | CCOc1ccc(B(O)O)cc1 [4-ethoxybenzeneboronic acid]
59 °C | CCOc1ccc(N=C=S)cc1 [4-ethoxyphenyl isothiocyanate]
-62 °C | CCc1ccc(C)cc1 [4-ethyltoluene]
